Assay results published in article PMC13081163, “Discovery of a novel Nrf2 activator that modulates mitochondrial function in neurons by regulating DHRS3-Nrf2 interaction after ischemic stroke” (Theranostics, 2026).

Columns and labels:
[1] = system: ARE-luciferase reporter (Nrf2 activation), Hek-293T cells; experiment: ARE-luciferase reporter gene assay; assay type: cell-based; settings: Homo sapiens
Procedure: The Hek-293T cells were cultured in 96-well plates 24 h before transfection with ARE-luciferase reporter plasmid (11548ES03, Yeasen, China) for 48 h according to the manufacturer's instructions. The Firefly luciferase activities was carried out 12 h after the drug treatment, as described by the manufacturer (11412ES81, Yeasen, China).

DHRS3-Nrf2 complex = target: T1, DHRS3-Nrf2 complex (Homo sapiens, UniProt O75911); experiment: Co-IP of Nrf2-DHRS3 interaction in SH-SY5Y cells; assay type: cell-based; settings: 100 nM, physiological and OGD/R conditions
T1 construct: endogenous in cells; host or cells: SH-SY5Y
T1 sequence (O75911 1-302): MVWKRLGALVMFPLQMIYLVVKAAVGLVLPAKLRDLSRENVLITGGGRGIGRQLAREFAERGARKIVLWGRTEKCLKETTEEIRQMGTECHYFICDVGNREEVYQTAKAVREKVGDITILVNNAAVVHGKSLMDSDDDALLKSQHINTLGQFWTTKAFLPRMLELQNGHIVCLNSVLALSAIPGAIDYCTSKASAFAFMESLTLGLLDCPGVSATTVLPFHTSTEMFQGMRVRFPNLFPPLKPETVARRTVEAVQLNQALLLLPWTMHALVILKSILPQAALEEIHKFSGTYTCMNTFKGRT
Procedure: Co-IP experiments were performed as described. After SH-SY5Y cells were treated, lysates were collected and incubated with antibodies with rotation for 12 h at 4 °C. Then, they were incubated with protein A/G magnetic beads (88804, Thermo Scientific, USA) as specification. Subsequently, the beads were collected and immune complexes were isolated. Finally, protein complexes were incubated for 5 min at 95 °C after dissolving in the electrophoresis sample buffer, and subjected to western blotting.

SH-SY5Y cells = experiment: Cytotoxicity in SH-SY5Y cells, 24 h incubation; assay type: cell-based; settings: Homo sapiens
[2] = Metabolite identification in human liver microsomes; assay type: in vitro ADME
Procedure: In vitro identification of metabolites was performed by incubating Cpd.51 (parent compound, final concentration 10 µM) with human liver microsomes (final protein concentration, 1 mg/mL) at 37 °C in a 100 mM potassium phosphate buffer containing 5 mM MgCl2. Samples were quenched with methanol and analyzed using a Waters G2-XS Q-Tof UPLC-MS system employing positive-ion and negative-ion electrospray ionization. The LC-MS extract ion chromatograms to identify the major putative metabolites. MS/MS spectra of Cpd.51 and its metabolites were acquired during both positive-ion and negative-ion electrospray. The potential chemical structures of the metabolites were inferred from their MS/MS spectra and retention times. Metabolic pathways of Cpd.51 in human liver microsomes were subsequently proposed. […]
The objective of this study is to identify major metabolites of Cpd.51 generated in human […]
In vitro metabolites identification was conducted after incubating Cpd.51 (parent compound, final concentration 10 µM) with human liver microsomes (final protein concentration, 1 mg/mL) at 37 °C in 100 mM potassium phosphate buffer containing 5 mM MgCl2 in the presence of NADPH or without NADPH. The samples taken at 0 minute (min) and 5 min were quenched by methanol and analyzed using Waters G2-XS Q-Tof UPLC-MS system with positive-ion and negative-ion electrospray ionization. […]

[3] = target: Keap1 BTB domain fragment (48-149) (Homo sapiens, UniProt Q14145); experiment: SPR binding to truncated Keap1 (48-149)
Sequence of Keap1 BTB domain fragment (48-149) (Q14145 48-149): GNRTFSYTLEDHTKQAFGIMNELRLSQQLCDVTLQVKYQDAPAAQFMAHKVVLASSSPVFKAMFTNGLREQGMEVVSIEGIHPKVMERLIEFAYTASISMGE
Procedure: The binding affinity of Cpd.51 or Oma to Keap1 proteins were measured using a Biacore T200. The overall experimental procedures were based on previous reports, [28]. Human recombinant Keap1 proteins or truncated form of Keap1 (residues 48-180 and residues 48-149) were captured on a CM5 chip by a standard amine coupling procedure. Binding sensorgrams were recorded by injecting various concentrations of Cpd.51 over the immobilized proteins surface. The dissociation constant was obtained by globally fitting the data (to the 1:1 Langmuir binding model using the Biacore Insight evaluation software (Cytiva, Marlborough, MA, USA). Affinity tests for Cpd.51 and DHRS3 were also performed using the aforementioned method.

## CC1(C)CCC2(C(=O)NO)CCC3(C)C(C(=O)C=C4C5(C)C=C(C#N)C(=O)C(C)(C)C5CCC43C)C2C1 (stereo not shown) [Cpd.51]
[1]; HEK-293T, cells transfected with NC-OE control plasmid
  EC50: 0.0567 µM
[1]; Hek-293T cells, 12 h after drug treatment
  EC50: 0.0481 µM
DHRS3-Nrf2 complex
  DHRS3-Nrf2 complex formation (Co-IP): substantially reduced DHRS3-Nrf2 complex formation
SH-SY5Y cells
  IC50: 1.98 µM
[2]; human liver microsomes
  number of major metabolites: 10
[2]; human liver microsomes with NADPH, 10 µM Cpd.51, 5 min, UV 250-260 nm
  Relative UV abundance (5 min), relative to parent in T0 sample: 54.06%
[3]
  Kd: 67.2 µM
